Earlier results in article PMC2831464 (Clinical cancer research : an official journal of the …, 2010).

Settings: cited from earlier work

SMILES	lactone AUC ratio	half-life [h]	share in the lactone form in plasma
CCc1c2c(nc3ccc(O)cc13)-c1cc3c(c(=O)n1C2)COC(=O)[C@]3(O)CC [SN-38]	30~76%	–	–
CC[C@@]1(O)C(=O)OCc2c1cc1n(c2=O)Cc2c-1nc1ccccc1c2/C=N/OC(C)(C)C [gimatecan]	–	77	90–98%
CC[C@@]1(O)C(=O)OCc2c1cc1n(c2=O)Cc2c-1nc1ccccc1c2CC[Si](C)(C)C [karenitecin]	–	15	90–95%
CC[C@@]1(O)C(=O)OCc2c1cc1n(c2=O)Cc2cc3c(CN(C)C)c(O)ccc3nc2-1 [topotecan]	30~76%	–	–
